Data: patent US20250018029A1, “METHODS TO ALTER THE TUMOR MICROENVIRONMENT FOR EFFECTIVE CANCER IMMUNOTHERAPY” (PDS BIOTECHNOLOGY CORPORATION, priority 2016, published 2025)
No end group written: not given here. *: point of attachment. Palmitoyl = CCCCCCCCCCCCCCCC(=O)*

Columns and labels:
[1] = tested on: Bone marrow derived dendritic cells (BMDC); test: DQ-OVA uptake and processing by bone marrow derived dendritic cells (flow cytometry); format: cell-based, mouse; details: for uptake and processing of DQ-OVA by DC (fluorescence): 37° C., versus DQ-OVA in media alone
Description: FIG. 1 provides a graph showing that DOTAP enhancement of antigen processing is specific for dendritic cells. Bone marrow derived dendritic cells were incubated with DQ-OVA in the presence of various concentrations of DOTAP as shown. In addition, a mouse epithelial cell line, TC1, was treated in an identical fashion.
FIG. 2 provides fluorescence readings for receptor mediated uptake. R-DOTAP nanoparticles, but not MPL stimulate uptake and processing by DC within 10 minutes. Mouse bone marrow DC were incubated in the presence of fluorescent DQ-OVA for one hour at either 37° C. or 4° C./azide in the presence of 25 uM DOTAP nanoparticles, 10 ug/ml MPL or media alone, and analyzed by flow cytometry. On the presented density plot, the y-axis represents the amount of green fluorescence which results from uptake and processing of the protein, while the x-axis represents the amount of red fluorescence resulting from concentration in endosomal vesicles.
To determine the effects of cationic lipids on antigen uptake and processing by dendritic cells, a fluorescent ovalbumin protein called DQ-OVA was used. DQ-OVA is non-fluorescent when intact, but emits both red and green fluorescence when the protein is degraded. Dendritic cells were grown from mouse bone marrow by culturing for 8 days in GMCSF+IL-4 (hereafter referred to as BMDC). BMDC were incubated at 37° C. or 4° C. for 1 hour with DQ-OVA alone, or DQ-OVA mixed with different concentrations of the cationic lipid R-DOTAP. The cells were then washed, fixed, and stained with fluorescent antibodies to CD11c, a marker for dendritic cells. Cells were then analyzed on an LSRII flow cytometer in both red and green fluorescent channels.
To determine whether non-cationic lipid adjuvants could mediate the same effect as DOTAP, BMDC were incubated with DQ-OVA in media alone or with DOTAP as described for FIG. 1. In addition, BMDC were incubated under identical conditions with the potent lipid adjuvant […] (MPL).

[2] = tested on: OT1 splenocytes (TCR transgenic T cells specific for SIINFEKL); test: Cross-presentation of OVA by DC to MHC class I restricted OT-1 T cells (3H-thymidine uptake); format: cell-based, mouse; details: whole OVA protein, 25 uM lipid, 37° C., versus OVA without cationic lipid
Description: FIG. 3: R-DOTAP enhancement of antigen processing results in enhancement of cross-presentation to MHC class I restricted T cells. Bone marrow derived DC were incubated in the presence of various concentrations of whole OVA protein and 25 uM DOTAP or DOTMA for 30 min at 37° C. or 4° C.
In order to verify that the cationic lipid facilitated uptake of antigen translates into enhanced antigen presentation on MHC class I (cross presentation), T cells from a TCR transgenic mouse (OT-1) were utilized in which all T cells are specific for an internal peptide of OVA. These T-cells will only proliferate if presented with DCs which have processed OVA and presented an OVA peptide on MHC class I molecules. Thus, this represents a stringent assay for cross-presentation. BMDC were incubated with different concentrations of the whole OVA protein in the presence or absence of two cationic lipids, either DOTAP or DOTMA for 1 hour at 37° C. The DCs were then washed, fixed and added to the OVA peptide specific T-cells. […] This response was dose dependent with respect to the OVA concentration, and was even apparent when DC were incubated with OVA at 4° C.

[3] = tested on: HPV16-specific CD8+ T-cells; test: HPV16-specific CD8+ T-cell induction after vaccination, ELISPOT of splenocytes; format: in vivo, C57 black mice; details: given with KF18 HPV peptide, vaccinated Day 0 and Day 7, splenocytes Day 14, stimulated with RAHYNIVTF
From the text: Effect of HPV16-E7, R-DOTAP/HPV16-E7, S-DOTAP/HPV16-E7 and Alum/MPL/HPV16-E7 vaccination on HPV16-specific CD8+ T-cell induction by ELISpot. The HPV16 E7 peptide used in the vaccine (SEQ ID NO: 2) is labelled KF18.
C57 black mice were vaccinated with various formulations: • Group 1: KF18 HPV peptide • Group 2: KF18 HPV peptide+R-DOTAP liposomes • Group 3: KF18 HPV peptide+S-DOTAP liposomes • Group 4: KF18 peptide+MPL/Alum adjuvant • *For each of the groups above, the KF18 HPV peptide corresponds to Palmitoyl-KSS-[…] (SEQ ID NO: 2)
5 mice per group were injected with the various formulations. The mice were vaccinated on Day 0 and Day 7 and sacrificed on Day 14. The splenocytes were removed and ELISPOT studies performed. The splenocytes were stimulated with the peptide […] (SEQ ID NO: 3), the HPV16 CD8+ T-cell epitope peptide recognized by the C57 mice.

[4] = tested on: HPV16-positive TC-1 tumors; test: Regression of established TC-1 tumors, R- versus S-DOTAP, administered Day 6; format: in vivo, mice; details: 1×10E^5 TC-1 cells day 0, administered on Day 6
Description: Effect of R-DOTAP (solid squares), R-DOTAP/HPV16-E7 (clear squares) and S-DOTAP/HPV16-E7 (solid circles) vaccination on regression of established HPV16-positive TC-1 tumors. The HPV16 E7 peptide used in the vaccine (SEQ ID NO: 2) is labelled KF18. Tumor volumes were measured using calipers.
R-DOTAP only, R-DOTAP/HPV16 E7 (SEQ ID NO: 2) and S-DOTAP/HPV16 E7 (SEQ ID NO: 2) were administered on Day 6 after tumor implantation.

[5] = tested on: T regulatory cells (CD45+CD3+CD4+CD25+Foxp3+) in tumor; test: Regulatory T cell population within TC-1 tumors (flow cytometry); format: in vivo, C57 mice; details: Day 19, within 1 week of vaccination (Day 12)
Description: FIG. 6: provides a graph showing that R-DOTAP and R-DOTAP+antigen uniquely reduce the population of regulatory T cells within the tumors after vaccination. 1×10^5 cells implanted subcutaneously on the right side of the abdomen of female B6 mice on day 0 and were vaccinated on day 12 and on day 19 post Tumor implant. T regulatory cells (CD45+CD3+CD4+CD25+Foxp3+) cells infiltrated into tumors on day 19. The reduction is calculated as the ratio of total T reg cells in tumor/average T reg cell in tumor and normalized to T reg cells in naïve mouse. Data represents mean±SEM of 4-5 mice in each group. * Statistically significant R-DOTAP+antigen compared to all other groups (other than R-DOTAP only). P<0.01.
C57 mice were divided into the following groups of 8 mice per group: • Group 1: R-DOTAP+KF18 (SEQ ID NO: 2) • Group 2: GM-CSF+KF18 (SEQ ID NO: 2) • Group 3: R-DOTAP • Group 4: GM-CSF • Group 5: KF18 (SEQ ID NO: 2) • Group 6: Naïve mice (tumor bearing and untreated). • 1×10E^5 TC-1 tumor cells were injected into the flank of the mice on day 0. The various formulations were administered on Days 12 and 19 after tumor implantation. […]

[6] = tested on: T-cells and total lymphocytes in popliteal lymph nodes; test: T-cell and lymphocyte infiltration into draining lymph nodes after foot pad injection; format: in vivo, mice
From the text: FIG. 10 provides a graph showing that R-DOTAP injection induces the migration of lymphocytes including T-lymphocytes into the draining lymph nodes. […] R-DOTAP injection is represented by striped bars, and the control is represented by shaded bars.
To better understand the ability of T-cell activating cationic lipids such as R-DOTAP to promote the induction of the effector CD8+ T-cells, which are also critical in altering the tumor's microenvironment, the impact of R-DOTAP vaccination on B and T-cells was studied. 12 mM R-DOTAP or sucrose as control were injected into the right and left foot pad respectively of mice and the influx of T-cells and total lymphocytes into the draining lymph nodes were quantified by flow cytometry. In this experiment, 15 hours after vaccination the popliteal lymph nodes were removed and analysis performed. […] Five mice were used per study.

[7] = tested on: CFSE labeled lymphocytes in popliteal LN; test: Lymph node homing of CFSE labeled adoptively transferred spleen cells, with or without pertussis toxin; format: in vivo, B6 mice; details: after 16 h
From the text: The primary objective of the current experiment was to understand if T-cell infiltration induced by R-DOTAP is chemokine dependent. We utilized 5 mice to perform the study, and visualized the homing of CFSE labeled adoptively transferred cells. The study included a population of cells that had been treated in vitro with pertussis toxin to inactivate chemokine receptors. Pertussis toxin-treated and untreated cells were labeled with two different concentrations of CFSE so that they could be distinguished by flow cytometry.
Spleen cells were prepared from a single B6 mouse and divided in half. Half of the cells were treated with Pertussis toxin 100 ng/ml for 1 hour at 37° C. and washed. The two cell populations were then labeled with CFSE at two different concentrations so they could be distinguished by flow cytometry, and mixed together. The mix (10e7 cells) was injected i.v. into the tail vein of 5 B6 mice. The mice were then anesthetized and injected in the footpad with either sucrose (right footpad) or R-DOTAP (left footpad, 50 ul, 600 nmoles).
After 16 h, the mice were sacrificed and the popliteal LN and spleens harvested. The total cells recovered from left and right nodes from each mouse were counted.

HPV-positive TC-1 tumors = test: Regression of established TC-1 tumors, vaccination Days 12 and 19; format: in vivo, C57 mice
Description: Tumors were implanted on Day 0 and the mice vaccinated on Days 12 and 19. Tumor volumes were measured using calipers. The naïve mice group are tumor bearing mice that remained untreated. […] P<0.01.
C57 mice were divided into the following groups of 8 mice per group: • Group 1: R-DOTAP+KF18 (SEQ ID NO: 2) • Group 2: GM-CSF+KF18 (SEQ ID NO: 2) • Group 3: R-DOTAP • Group 4: GM-CSF • Group 5: KF18 (SEQ ID NO: 2) • Group 6: Naïve mice (tumor bearing and untreated). • 1×10E^5 TC-1 tumor cells were injected into the flank of the mice on day 0. The various formulations were administered on Days 12 and 19 after tumor implantation.
The third group of animals who were treated with either R-DOTAP alone or GM-CSF alone without antigen, or left untreated (Treg/CD8+ ratio >30) had tumor volumes of 300-700 mm^3.

## CCCCCCCC/C=C\CCCCCCCC(=O)OCC(C[N+](C)(C)C)OC(=O)CCCCCCC/C=C\CCCCCCCC (stereo not shown) [DOTAP, 1,2-dioleoyl-3-trimethylammonium propane]
[1]; BMDC with DQ-OVA, 1 hour, 4° C.
  uptake of DQ-OVA by DC at 4° C.: Significant uptake
[1]; BMDC with DQ-OVA, 1 hour
  uptake and processing of DQ-OVA by DC (fluorescence): significant increase of fluorescence
[1]; concentration dependent effect in BMDC
  concentration showing the greatest effect on DQ-OVA uptake: 50 µM
[2]
  cross-presentation of OVA antigen by DC to CD8+ T cells: much more efficiently

## CCCCCCCC/C=C\CCCCCCCC(=O)OCC(C[N+](C)(C)C)OC(=O)CCCCCCC/C=C\CCCCCCCC (stereo not shown) [R-DOTAP, 1,2-dioleoyl-3-trimethylammonium propane]
[1]; 25 uM DOTAP nanoparticles, FIG. 2 legend
  time within which uptake and processing by DC is stimulated: ≤ 10 min
[1]; BMDC with DQ-OVA, 1 hour
  uptake and processing of DQ-OVA by DC (fluorescence): greatly enhanced
[3]
  HPV-specific CD8+ T-cell response (ELISPOT): effective in inducing strong HPV-specific CD8+ T-cell responses
[4]
  anti-tumor effect on established TC-1 tumors: lack of regression or inhibition of growth
[5]
  reduction in the Treg population within the tumors: about 20%
[6]; 12 mM, foot pad, 15 hours after vaccination, sucrose as control
  infiltration of T-cells into the draining lymph node: significant infiltration of T-cells into the lymph node
[6]; 5 hours, 16 hours, 3 days and 4 days
  lymphocyte infiltration into the lymph nodes over time: increase over the 4-day period
[7]; cells treated with Pertussis toxin 100 ng/ml
  infiltration of pertussis toxin treated CFSE labeled cells into the lymph node: did not occur
[7]; untreated cells, footpad 50 ul, 600 nmoles
  infiltration of transferred CFSE labeled lymphocytes into the lymph node: infiltrated the lymph node

## CCCCCCCC/C=C\CCCCCCCC(=O)OCC(C[N+](C)(C)C)OC(=O)CCCCCCC/C=C\CCCCCCCC (stereo not shown) [S-DOTAP, 1,2-dioleoyl-3-trimethylammonium propane]
[1]; BMDC with DQ-OVA, 1 hour
  uptake and processing of DQ-OVA by DC (fluorescence): no difference
[3]
  HPV-specific CD8+ T-cell response (ELISPOT): did not result in an enhanced CD8+ T-cell response beyond what was seen with the peptide alone

## Monophorphoryl lipid-A [MPL, reference compound]
[1]; BMDC with DQ-OVA, 1 hour
  uptake and processing of DQ-OVA by DC (fluorescence): no such enhancement
[3]
  HPV-specific CD8+ T-cell response (ELISPOT): significantly lower CD8+ T-cell response compared to R-DOTAP

## Palmitoyl-KSS-GQAEPDRAHYNIVTF (Palmitoyl-KSSGQAEPDRAHYNIVTF) [KF18]
HPV-positive TC-1 tumors; vaccinated Days 12 and 19, Day 26
  tumor volume: about 200 mm^3
HPV-positive TC-1 tumors; vaccinated Days 12 and 19, by Day 26
  tumor regression / elimination: did not induce any tumor regression but rather inhibited tumor growth
